Drawing on ChEMBL document CHEMBL5729684, “Pharmaceutical compounds” (2023), this text covers EC50 for five compounds.

The assay is described as follows: Plaque Reduction Assay: Hep-G2 cells (ECACC, 85011430) were passaged in flasks and seeded in 24-well plates in DMEM containing antibiotics and supplemented with 10% FBS. During inoculation and subsequent incubation, cells were cultured in DMEM containing 2% FBS. 100 plaque forming unit/well of RSV (RSV A2 ECACC, 0709161v) was mixed with eight serial dilutions of compound. Subsequently, 100 μL of the virus/compound mixtures was added to confluent Hep-G2 cell monolayers. The cells and virus/compound mixtures were incubated at 37° C. in a humidified 5% CO2 incubator for 2 h prior to removal of the inoculum and addition of 1 mL of overlay (DMEM containing 2% FBS and 0.8% CMC) containing compound dilutions. The cells and were incubated at 37° C. in a humidified 5% CO2 incubator for 2 days.Cells were washed with PBS before adding 75/25% […] EtOH/MeOH, for 3 min. Fixative was removed and plates were washed with PBS. A pre-titrated amount of the primary antibody was added in 200 μL PBS/2% milk powder, and plates incubated for 90 min at 37° C. The plates were washed 3 times with PBS/0.05% Tween20 before addition of rabbit anti-goat horse radish peroxidase in 200 μL PBS/2% milk powder, and incubated for 1 h at 37° C. Following three wash steps with PBS/0.05% Tween20, 200 μL ready-to-use TrueBlue was added and plates were incubated at rt for 10-15 min before washing with water. After removal of water, plates were air-dried in the dark.Plates were scanned and analysed using the Immunospot S6 Macro analyser, which is equipped with BioSpot analysis software for counting immunostained plaques (virospots). Plaque counts were used to calculate % c infection relative to the mean of the plaque count in the virus control wells for RSV. The EC50 value was calculated as 50% reduction in signal, respectively, by interpolation of inhibition curves fitted with a 4-parameter nonlinear regression with a variable slope in Dotmatics. Particulars: HepG2.

A word on the EC50: it is the concentration at which the effect is half-maximal. In the case of `Cc1ccnc2c(C(=O)N[C@H]3N=C(c4ccccc4)c4cccc(F)c4NC3=O)c(-c3ccccc3F)nn12`, the EC50 is 0.027 µM.
In the case of `Cc1nc(NC(C)C)ccc1-c1nn2cccnc2c1C(=O)N[C@H]1N=C(c2ccccc2)c2ccccc2NC1=O`, the EC50 is 0.041 µM.
With `O=C(N[C@H]1N=C(c2ccccc2)c2cccc(F)c2NC1=O)c1c(-c2ccccc2)nn2cccnc12` the figure was 0.09 µM; with `Cc1nc(NC(C)C)ccc1-c1nn2cccnc2c1C(=O)N[C@H]1N=C(c2ccccc2)c2cccc(F)c2NC1=O`, 0.025 µM.
For the compound `Cc1cc(NC(C)C)ncc1-c1nn2cccnc2c1C(=O)N[C@H]1N=C(c2ccccc2)c2cccc(F)c2NC1=O`, the EC50 was 0.074 µM.
